The subject of assay [1] is Human promyelocytic leukemia (HL60) cells. The experiment in a line: HL-60 differentiation (nitro blue tetrazolium reduction). Type of assay: cell-based. To be noted: for EC50: HL60 cells, four days of treatment, read-out: EC50, ability to promote HL60 differentiation; for potency on HL-60 cell differentiation compared to 1,25(OH)2D3, in words: HL-60 cells. The method, then: Serial dilutions were prepared so that a range of drug concentrations could be tested without changing the final concentration of ethanol (≦0.2%) present in the cell cultures.
Human promyelocytic leukemia (HL60) cells were grown in RPMI-1640 medium containing 10% fetal bovine serum. The cells were incubated at 37° C. in the presence of 5% CO2.
HL60 cells were plated at 1.2×10^5 cells/ml. Eighteen hours after plating, cells in duplicate were treated with drug. Four days later, the cells were harvested and a nitro blue tetrazolium reduction assay was performed (Collins et al., 1979; J. Exp. Med. 149:969-974). The percentage of differentiated cells was determined by counting a total of 200 cells and recording the number that contained intracellular black-blue formazan deposits. Verification of differentiation to monocytic cells was determined by measuring phagocytic activity (data not shown).

In assay [2] the test system is 24-hydroxylase (24Ohase) gene promoter. Description: In vitro transcription assay, luciferase reporter in ROS 17/2.8 (bone) cells. Type of assay: cell-based. Particulars: for EC50: ROS 17/2.8 cells, 24-hydroxylase promoter-luciferase, sixteen hours after dosing, read-out: EC50, transcriptional activity in bone cells; for potency relative to 1,25(OH)2D3 in increasing transcription of the 24-hydroxylase gene: bone cells, fold more potent than 1,25(OH)2D3. The protocol: Transcription activity was measured in ROS 17/2.8 (bone) cells that were stably transfected with a 24-hydroxylase (24Ohase) gene promoter upstream of a luciferase reporter gene (Arbour et al., 1998). Cells were given a range of doses. Sixteen hours after dosing the cells were harvested and luciferase activities were measured using a luminometer. RLU=relative luciferase units.

The nature of assay [3]: Bone calcium mobilization (serum calcium) in vitamin D-deficient rats. The format is in vivo, rat. To be noted: for bone calcium mobilization activity (serum calcium), in words: dosages tested; for bone calcium mobilization activity (serum calcium), in words / mobilization of bone calcium at 780 pmol/day: 0.02% Ca diet; for mobilization of bone calcium at 780 pmol/day: 780 pmol/day for 4 consecutive days; for potency relative to the native hormone in releasing bone calcium stores: low calcium diet (0.02%), four consecutive ip doses. The method, then: (§1) Male, weanling Sprague-Dawley rats were placed on Diet 11 (Suda et al, J. Nutr. 100:1049, 1970) (0.47% Ca)+vitamins AEK for one week followed by Diet 11 (0.02% Ca)+vitamins AEK for 3 weeks. The rats were then switched to the same diet containing 0.47% Ca for one week followed by two weeks on the same diet containing 0.02% Ca. Dose administration began during the last week on 0.02% calcium diet. Four consecutive ip doses were given approximately 24 hours apart. Twenty-four hours after the last dose, blood was collected from the severed neck and the concentration of serum calcium determined by atomic absorption spectrometry as a measure of bone calcium mobilization. The first 10 cm of the intestine was also collected for intestinal calcium transport analysis using the everted gut sac method.

Assay [4] is described as follows: Intestinal calcium transport, everted gut sac method, in vitamin D-deficient rats. The format is in vivo, rat. To be noted: compared to 1,25(OH)2D3. The protocol: as §1
Assay [5] addresses T1, full-length recombinant rat vitamin D receptor (Rattus norvegicus, UniProt P13053).
T1 sequence (P13053 1-423): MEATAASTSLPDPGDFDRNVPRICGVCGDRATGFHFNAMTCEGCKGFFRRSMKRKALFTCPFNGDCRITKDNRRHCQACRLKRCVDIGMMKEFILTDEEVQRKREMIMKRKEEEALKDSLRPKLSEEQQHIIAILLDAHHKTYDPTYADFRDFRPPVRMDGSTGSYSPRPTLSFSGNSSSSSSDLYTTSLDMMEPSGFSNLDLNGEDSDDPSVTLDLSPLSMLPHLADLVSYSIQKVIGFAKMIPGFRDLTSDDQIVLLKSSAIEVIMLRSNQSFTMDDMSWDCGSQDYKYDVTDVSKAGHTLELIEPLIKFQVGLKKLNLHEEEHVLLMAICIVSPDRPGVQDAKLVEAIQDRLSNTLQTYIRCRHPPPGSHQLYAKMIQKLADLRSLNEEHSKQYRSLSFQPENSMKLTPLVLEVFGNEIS
Protocol: (§2) Full-length recombinant rat receptor was expressed in E. coli BL21 (DE3) Codon Plus RIL cells and purified to homogeneity using two different column chromatography systems. The first system was a nickel affinity resin that utilizes the C-terminal histidine tag on this protein. The protein that was eluted from this resin was further purified using ion exchange chromatography (S-Sepharose Fast Flow). Aliquots of the purified protein were quick frozen in liquid nitrogen and stored at −80° C. until use. For use in binding assays, the protein was diluted in TEDK50 (50 mM Tris, 1.5 mM EDTA, pH7.4, 5 mM DTT, 150 mM KCl) with 0.1% Chaps detergent. The receptor protein and ligand concentration was optimized such that no more than 20% of the added radiolabeled ligand was bound to the receptor.
(§3) Radiolabeled and unlabeled ligands were added to 100 mcl of the diluted protein at a final ethanol concentration of ≦10%, mixed and incubated overnight on ice to reach binding equilibrium. The following day, 100 mcl of hydroxylapatite slurry (50%) was added to each tube and mixed at 10-minute intervals for 30 minutes. The hydroxylapaptite was collected by centrifugation and then washed three times with Tris-EDTA buffer (50 mM Tris, 1.5 mM EDTA, pH 7.4) containing 0.5% Titron X-100. After the final wash, the pellets were transferred to scintillation vials containing 4 ml of Biosafe II scintillation cocktail, mixed and placed in a scintillation counter. Total binding was determined from the tubes containing only radiolabeled ligand.

Assay [6] has as its target T1, full-length recombinant rat vitamin D receptor. Description: biochemical.
Protocol: as §2, §3

Entries after “also recorded” stand apart in the source; their conditions may differ. Where two headings read alike, the source gives them in different places.

We go through four compounds from patent publication US8410080B1, “2-methylene-vitamin D analogs and their uses” (Wisconsin Alumni Research Foundation, priority 2011, dated 2013).

For `C=C1/C(=C\C=C2/CCC[C@]3(C)[C@@H]([C@H](C)CCCC(C)(C)O)CC[C@@H]23)C[C@@H](O)C[C@@H]1O` [1α,25-dihydroxyvitamin D3, reference compound], the EC50 is 3 nM in assay [1] and 0.2 nM in assay [2]. For the same compound, in assay [3], the “bone calcium mobilization activity (serum calcium), in words” value (shortened to “bone calcium mobilization activity”) is listed as “increased serum calcium levels”.
For `C=C1/C(=C\C=C2/CCC[C@]3(C)[C@@H]([C@H](C)CCCC(C)(C)O)CC[C@@H]23)C[C@@H](O)C(=C)[C@@H]1O` [2EG-R, (20R)-1α,25-dihydroxy-2-methylene-vitamin D3], the EC50 in assay [1] (Homo sapiens, HL-60, 96 h) came to 7 nM. Also, in assay [2], the EC50 was 0.03 nM and the “potency relative to 1,25(OH)2D3 in increasing transcription of the 24-hydroxylase gene” value is on record as “about 10 times”. Besides, in assay [3], the “mobilization of bone calcium at 780 pmol/day” value is reported as “significant mobilization of bone calcium”; the “bone calcium mobilization activity” value is “more potent than the native hormone”; the “potency relative to the native hormone in releasing bone calcium stores” value is reported as “at least 10 times”. For the same compound, the “intestinal calcium transport activity, in words” value in assay [4] was “more potent than 1,25(OH)2D3; also recorded: very significant activity”. Also, the “binding affinity to the receptor compared to the standard 1,25-(OH)2D3, in words” value in assay [5] is on record as “about the same affinity”. In addition, the Ki in assay [6] was 0.06 nM.
Consider `C=C1/C(=C\C=C2/CCC[C@]3(C)[C@@H]([C@@H](C)CCCC(C)(C)O)CC[C@@H]23)C[C@@H](O)C(=C)[C@@H]1O` [2EG-S, (20S)-1α,25-dihydroxy-2-methylene-vitamin D3], for which the “potency on HL-60 cell differentiation compared to 1,25(OH)2D3, in words” value in assay [1] is “more potent than 1,25(OH)2D3”. Moreover, in assay [1] (Homo sapiens, HL-60, 96 h), the EC50 was 0.06 nM. For the same compound, in assay [2], the EC50 stood at 0.005 nM and the “potency relative to 1,25(OH)2D3 in increasing transcription of the 24-hydroxylase gene” value is on record as “about 40 times”. For the same compound, in assay [3], the “mobilization of bone calcium at 780 pmol/day” value is “significant mobilization of bone calcium”; the “bone calcium mobilization activity” value is given as “more potent than the native hormone”; the “potency relative to the native hormone in releasing bone calcium stores” value is recorded as “at least 10 times”. In addition, the “intestinal calcium transport activity, in words” value in assay [4] is reported as “more potent than 1,25(OH)2D3; also recorded: very significant activity”. Besides, the “binding affinity to the receptor compared to the standard 1,25-(OH)2D3, in words” value in assay [5] was “about the same affinity”. For the same compound, the Ki in assay [6] came out at 0.1 nM.
As for `C=C1/C(=C/C=C2\CCC[C@]3(C)[C@@H]([C@@H](C)CCCC(C)(C)O)CC[C@@H]23)C[C@@H](O)C(=C)[C@@H]1O` [T-2EG-S, (5E)-(20S)-1α,25-dihydroxy-2-methylene-vitamin D3], the “potency on HL-60 cell differentiation compared to 1,25(OH)2D3, in words” value in assay [1] is “more potent than 1,25(OH)2D3”. For the same compound, the EC50 in assay [1] (Homo sapiens, HL-60, 96 h) worked out at 0.3 nM. Also, the “potency relative to 1,25(OH)2D3 in increasing transcription of the 24-hydroxylase gene” value in assay [2] is recorded as “about 10 times”. Moreover, in assay [3], the “mobilization of bone calcium at 780 pmol/day” value is given as “significant mobilization of bone calcium”; the “bone calcium mobilization activity” value was “more potent than the native hormone”; the “potency relative to the native hormone in releasing bone calcium stores” value is “at least 10 times”. For the same compound, the “intestinal calcium transport activity, in words” value in assay [4] was “about the same potency as 1,25(OH)2D3; also recorded: very significant activity”. Further, the “binding affinity to the receptor compared to the standard 1,25-(OH)2D3, in words” value in assay [5] was “about the same affinity”. Besides, the Ki in assay [6] is 0.1 nM.
